Earlier results as cited in patent US20060104967A1, “Method of converting the state of proteins” (priority 2004, published 2006).
*1 amine or outer side, *2 acyl side, *3 side chain or, on linkers, in order; H or OH if unused. Where a SMILES comes first, the peptide text is derived from it. Bridges are numbered along the chain shown (N, C = ends). [ ]: non-standard residue; d: D form. Adda = CO[C@@H](Cc1ccccc1)[C@@H](C)/C=C(C)/C=C/[C@H](N[*:1])[C@H](C)C(=O)[*:2]; dAsp(3S-Me) = C[C@H](C(=O)[*:3])[C@@H](N[*:1])C(=O)[*:2]; d(γGlu) = O=C(O)[C@@H](CCC(=O)[*:2])N[*:1]; NMeDha = C=C(NC)C(=O)O

Target: PP2B
Details: read-out: Ki values for PP2B, concentrations of inhibitors where the enzyme activity becomes to half

SMILES	Ki [µM]
C=C1C(=O)N[C@H](C)C(=O)N[C@@H](CC(C)C)C(=O)N[C@@H](C(=O)O)[C@H](C)C(=O)N[C@@H](CCCNC(=N)N)C(=O)N[C@@H](/C=C/C(C)=C/[C@H](C)[C@H](Cc2ccccc2)OC)[C@H](C)C(=O)N[C@@H](C(=O)O)CCC(=O)N1C [microcystin LR] (R[Adda][d(γGlu)][NMeDha][dA]L[dAsp(3S-Me)]-OH; lactam N-7)	200
C=C1[C@@H](O)[C@@H]2O[C@]3(CC[C@H](/C=C/[C@@H](C)[C@@H]4CC(C)=C[C@@]5(O[C@H](C[C@@](C)(O)C(=O)O)CC[C@H]5O)O4)O3)CC[C@H]2O[C@@H]1[C@@H](O)C[C@H](C)[C@H]1O[C@@]2(CCCCO2)CC[C@H]1C [okadaic acid]	5000
